Reference: US20250295777A1, “HOMEOPATHIC PHARMACEUTICAL COMPOSITION FOR TREATING UPPER AND LOWER RESPIRATORY TRACT DISEASES” (priority 2022, published 2025)
Counter-ions that a name gives are not always drawn. Like-named read-outs stand apart in the source and are kept apart here.

Experiments:
[1] = system: upper respiratory tract ciliated epithelium cilia; assay: beating frequency of the ciliated epithelium cilia (in vitro, test sample vs isotonic NaCl control); format: cell-based, human (patients)
Source text: (§1) To determine the efficiency of mucociliary clearance, the authors of the present invention measured the frequency (Frequency) and period (Time) of the upper respiratory tract ciliated epithelium cilia beating using methods for determining these parameters that are well known to persons skilled in the art and have been repeatedly described in the prior art. The authors of the invention took into account that sufficient functioning of the ciliated epithelium cilia is the most important parameter of the effectiveness of mucociliary clearance (Duchateau G S M J E, Graamans K., Zuidema J., Merkus F W H M.—Laryngoscope 1985; 95:854-859), and, therefore, they measured the percentage of ciliated epithelium cells with motile cilia (Movement). Non-limiting (illustrative) examples of methods for determining the parameters of the upper respiratory tract ciliated epithelium cilia beating are given in V. V. Shabalin et al., Biophysical Methods for Studying Mucociliary Transport of the Normal and Pathological Upper and Lower Respiratory Tract.—See in Problems of Therapeutic and Surgical Pulmonology, collection of conference materials, Saint Petersburg, 1997, pp. 44-45.
(§2) The effect of the composition of the invention on the performance of the ciliated epithelium cilia and the lifespan of the ciliated epithelium was studied in comparison with separate components (Apis mellifica, Eupharsia officinalis, Allium cepa, Tatrarus stibiatus, Hepar sulphur, and Arnica montana separately), with the composition according to patent RU 2748548 and with an isotonic NaCl solution (0.9% solution).
(§3) The study included patients with acute and chronic rhinosinusitis, as well as patients without a history of otolaryngological disorders.
(§4) It is well known to persons skilled in the art that the optimal medium for the ciliated epithelium functioning is a saline (0.9% NaCl solution) and that this medium allows the ciliated epithelium cells to move synchronously and live the longest; therefore, ciliated epithelium treated with a saline was used as a control.
(§5) The results include the following parameters: • Frequency 1, Hz—the beating frequency of the ciliated epithelium cilia in the test sample, • Frequency 2, Hz—the beating frequency of the ciliated epithelium cilia in the control (isotonic NaCl solution), • Time 1, min—lifespan of the ciliated epithelium cilia in the test sample, • Time 2, min—lifespan of the ciliated epithelium cilia in the control.

[2] = system: upper respiratory tract ciliated epithelium; assay: lifespan of the ciliated epithelium cilia / cell survival time in vitro (test sample vs isotonic NaCl control); format: cell-based, human (patients)
Source text: as §1, §2, §3, §4, §5

[3] = system: ciliated epithelium (upper respiratory tract epithelium cilia); conditions: cited from earlier work
[4] = average values over 5 patients / dilutions D3-C30
[5] = dilution C3, single patient sample
[6] = dilution C6, single patient sample
[7] = dilution C30, single patient sample
[8] = dilution D3, single patient sample
[9] = dilution D6, single patient sample

O.O.O.O=C([O-])[C@H]([O-])[C@@H]([O-])C(=O)[O-].O=C([O-])[C@H]([O-])[C@@H]([O-])C(=O)[O-].[K+].[K+].[Sb+3].[Sb+3] [Tartarus stibiatus, tartrate of antimony and potassium]
Frequency 1, Hz (beating frequency of the ciliated epithelium cilia in the test sample) [1, 4]: 5.2134 Hz
Frequency 1, Hz (beating frequency of the ciliated epithelium cilia in the test sample) [1, 5]: 6.503 Hz
Frequency 1, Hz (beating frequency of the ciliated epithelium cilia in the test sample) [1, 6]: 5.283 Hz
Frequency 1, Hz (beating frequency of the ciliated epithelium cilia in the test sample) [1, 7]: 4.092 Hz
Frequency 1, Hz (beating frequency of the ciliated epithelium cilia in the test sample) [1, 8]: 5.177 Hz
Frequency 1, Hz (beating frequency of the ciliated epithelium cilia in the test sample) [1, 9]: 5.012 Hz
Time 1, min (lifespan of the ciliated epithelium cilia in the test sample) [2, 4]: 24.6 min
Time 1, min (lifespan of the ciliated epithelium cilia in the test sample) [2, 5]: 28 min
Time 1, min (lifespan of the ciliated epithelium cilia in the test sample) [2, 6]: 20 min
Time 1, min (lifespan of the ciliated epithelium cilia in the test sample) [2, 7]: 28 min
Time 1, min (lifespan of the ciliated epithelium cilia in the test sample) [2, 8]: 27 min
Time 1, min (lifespan of the ciliated epithelium cilia in the test sample) [2, 9]: 20 min

CC(C)(O)C(Cl)(Cl)Cl [chlorbutol]
ciliary beat frequency (CBF) reduced by [3]: 100%

C[C@@H]1CN([C@H]2CC[C@](C#N)(c3ccc(F)cc3)CC2)CC[C@]1(C(=O)O)c1ccccc1 [levocabastine]
ciliary beat frequency (CBF) reduced by [3]: 13%

C[CH2][Hg][S]c1ccccc1C(=O)[O-].[Na+] [thiomersal]
ciliary beat frequency (CBF) reduced by [3]: 100%

Cc1cc(C(C)(C)C)cc(C)c1CC1=NCCN1 [xylometazoline hydrochloride]
ciliary beat frequency (CBF) reduced by ([3]; 0.1% solution): 69%

neomycin
ciliary beat frequency (CBF) reduced by [3]: 82%
